Columns and labels:
[1] = target: T1, ALK-wt (Homo sapiens, UniProt Q9UM73); assay: Biochemical kinase assay, ALK-wt kinase domain; details: apparent inhibitory constant, Morrison equation; ATP 2 mM in substrate solution; read-out: ALK-wt Ki^app
T1 construct: purchased Carna 08-518
In short: (§1)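 Compound in DMSO added first, then substrate solution (ATP 2 mM; AQT0101 or AQT0104, 26 μM; pH 7.5 HEPES, 10 mM MgCl2), then kinase solution with enzyme at 0.5–3 nM depending on construct. Kinetic read every 2 min for 120 min at 30° C; Ki^app by Morrison regression.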

[2] = target: T2, ALK L1196M/G1202R (Homo sapiens, UniProt Q9UM73, G1202R/L1196M); assay: Biochemical kinase assay, ALK L1196M/G1202R kinase domain; details: apparent inhibitory constant, Morrison equation; ATP 2 mM in substrate solution; read-out: ALK-L1196M-G1202R Ki^app
T2 construct: purchased SignalChem A19-12NG
In short: as §1

[3] = target: T3, ROS1-wt (Homo sapiens, UniProt P08922); assay: Biochemical kinase assay, ROS1-wt kinase domain; details: apparent inhibitory constant, Morrison equation; ATP 2 mM in substrate solution; read-out: ROS1-wt Ki^app
T3 construct: purchased Carna 08-163
In short: (§2)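 Kinetic read: 485 nm, 2-min intervals, 120 min, 30 °C. Substrate mix — ATP 2 mM, AQT0101 26 μM, HEPES 50 mM pH 7.5, MgCl2 10 mM. Output: Ki^app, Morrison equation.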

[4] = target: T4, ROS1-G2032R (Homo sapiens, UniProt P08922, G2032R); assay: Biochemical kinase assay, ROS1-G2032R kinase domain; details: apparent inhibitory constant, Morrison equation; ATP 2 mM in substrate solution; read-out: ROS1-G2032R Ki^app
T4 construct: purchased SignalChem R14-12BG
In short: as §2

[5] = target: T5, TRKA-wt (Homo sapiens, UniProt P04629); assay: Biochemical kinase assay, TRKA-wt kinase domain; details: apparent inhibitory constant, Morrison equation; ATP 2 mM in substrate solution; read-out: TRKA-wt Ki^app
T5 construct: or TRKA-wt (1 nM, BPS Bio, 40280) kinase domains in buffer; purchased BPS Bio 40280
In short: as §1

[6] = target: T6, Ba/F3 cells CD74-ROS1 wild-type (wt) (Homo sapiens, UniProt P08922); assay: Ba/F3 cell proliferation assay, CD74-ROS1 wild-type; format: cell-based; details: 72 hours, CellTiter-Glo
T6 construct: fusion of the C-terminus of ROS1 with the N-terminus of various partner proteins; host or cells: Ba/F3 (RIKEN), retroviral pMSCV-puro; the other entry of the earlier key: CD74 (P04233, HLA class II histocompatibility antigen gamma chain)
In short: (§3)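 Cells were seeded 1 day, then exposed to a 3-fold compound dilution series for 72 hours. Viability was read by CellTiter-Glo luminescence; IC50 came from four-parameter logistic fitting of percent inhibition.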

[7] = target: T7, Ba/F3 cells CD74-ROS1 G2032R (Homo sapiens, UniProt P08922, G2032R); assay: Ba/F3 cell proliferation assay, CD74-ROS1 G2032R; format: cell-based; details: 72 hours, CellTiter-Glo
T7 construct: fusion of the C-terminus of ROS1 with the N-terminus of various partner proteins; host or cells: Ba/F3 (RIKEN), retroviral pMSCV-puro; the other entry of the earlier key: CD74 (P04233, HLA class II histocompatibility antigen gamma chain)
In short: as §3

[8] = target: T8, Ba/F3 cells EML4-ALK wt (variant 1) (Homo sapiens, UniProt Q9UM73); assay: Ba/F3 cell proliferation assay, EML4-ALK wt (variant 1); format: cell-based; details: 72 hours, CellTiter-Glo
T8 construct: echinoderm microtubule-associated protein-like 4 (EML4) gene and the ALK tyrosine kinase domain; host or cells: Ba/F3 (RIKEN), retroviral pMSCV-puro; the other entry of the earlier key: EML4 (Q9HC35, Echinoderm microtubule-associated protein-like 4)
In short: (§4)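 IL-3-independent Ba/F3 monoclones, puromycin-selected, transduced with fusion genes; 1,000 cells/well, 1 day rest, 3-fold compound series, 72 h. Read: CellTiter-Glo luminescence. IC50 from % inhibition vs concentration, 4-parameter logistic.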

[9] = target: T9, Ba/F3 cells EML4-ALK L1196M/G1202R (variant 1) (Homo sapiens, UniProt Q9UM73, G1202R/L1196M); assay: Ba/F3 cell proliferation assay, EML4-ALK L1196M/G1202R (variant 1); format: cell-based; details: 72 hours, CellTiter-Glo
T9 construct: echinoderm microtubule-associated protein-like 4 (EML4) gene and the ALK tyrosine kinase domain; host or cells: Ba/F3 (RIKEN), retroviral pMSCV-puro; the other entry of the earlier key: EML4 (Q9HC35, Echinoderm microtubule-associated protein-like 4)
In short: as §4

[10] = target: T10, Ba/F3 cells TPM3-TRKA (Homo sapiens, UniProt P04629); assay: Ba/F3 cell proliferation assay, TPM3-TRKA; format: cell-based; details: 72 hours, CellTiter-Glo, read-out: TPM3-NTRK1-wt IC50
T10 construct: host or cells: Ba/F3 (RIKEN), retroviral pMSCV-puro; the other entry of the earlier key: TPM3 (P06753, Tropomyosin alpha-3 chain)
In short: as §4

[11] = system: TPM3-NTRK1-wt IC50 / primary target IC50 (e.g. CD74-ROS1-wt); assay: TRKA selectivity in Ba/F3 cells (TRKA potency divided by primary target potency); format: cell-based; details: for TPM3-NTRK1-wt/CD74-ROS1-G2032R selectivity ratio: TRKA potency / CD74-ROS1-G2032R potency; for TPM3-NTRK1-wt/CD74-ROS1-wt selectivity ratio: TRKA potency / CD74-ROS1-wt potency; for TPM3-NTRK1-wt/EML4-ALK-L1196M-G1202R selectivity ratio: TRKA potency / EML4-ALK-L1196M-G1202R potency; for TPM3-NTRK1-wt/EML4-ALK-wt selectivity ratio: TRKA potency / EML4-ALK-wt potency
Description: TRKA selectivity was calculated by dividing a compound's TRKA potency by its primary target potency (e.g. TPM3-NTRK1-wt IC50/CD74-ROS1-wt IC50). Compound selectivity can be interpreted by binning ratio values: bin A for very high selectivity, ratio >30-fold; bin B for high selectivity, ratio >10-fold; bin C for moderate selectivity, ratio ≥1; and bin D for low selectivity, ratio <1. […] (nd=not determined).

T7 sequence (P08922 1883-2347 G2032R limits assumed): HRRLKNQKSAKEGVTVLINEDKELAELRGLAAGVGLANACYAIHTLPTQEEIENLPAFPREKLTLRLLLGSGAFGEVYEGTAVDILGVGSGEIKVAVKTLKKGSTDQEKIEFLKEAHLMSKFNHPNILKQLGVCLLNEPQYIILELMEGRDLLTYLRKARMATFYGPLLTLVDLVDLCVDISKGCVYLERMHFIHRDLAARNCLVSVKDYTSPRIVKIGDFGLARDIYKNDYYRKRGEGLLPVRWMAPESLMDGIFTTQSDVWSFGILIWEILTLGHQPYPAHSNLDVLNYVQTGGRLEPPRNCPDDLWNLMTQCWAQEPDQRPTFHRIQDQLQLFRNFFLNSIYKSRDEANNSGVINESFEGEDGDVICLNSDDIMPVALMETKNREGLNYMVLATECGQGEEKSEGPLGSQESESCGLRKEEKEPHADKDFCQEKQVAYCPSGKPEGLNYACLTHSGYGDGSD
T1 sequence (Q9UM73 1116-1392 limits assumed): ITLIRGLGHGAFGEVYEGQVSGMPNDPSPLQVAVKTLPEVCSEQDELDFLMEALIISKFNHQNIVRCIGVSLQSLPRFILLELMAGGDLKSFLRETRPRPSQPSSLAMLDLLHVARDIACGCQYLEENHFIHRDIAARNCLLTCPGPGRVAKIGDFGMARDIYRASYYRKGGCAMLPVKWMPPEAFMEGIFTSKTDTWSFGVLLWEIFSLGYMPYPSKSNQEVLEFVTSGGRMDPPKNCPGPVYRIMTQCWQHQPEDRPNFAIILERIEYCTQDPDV
T5 sequence (P04629 510-781 limits assumed): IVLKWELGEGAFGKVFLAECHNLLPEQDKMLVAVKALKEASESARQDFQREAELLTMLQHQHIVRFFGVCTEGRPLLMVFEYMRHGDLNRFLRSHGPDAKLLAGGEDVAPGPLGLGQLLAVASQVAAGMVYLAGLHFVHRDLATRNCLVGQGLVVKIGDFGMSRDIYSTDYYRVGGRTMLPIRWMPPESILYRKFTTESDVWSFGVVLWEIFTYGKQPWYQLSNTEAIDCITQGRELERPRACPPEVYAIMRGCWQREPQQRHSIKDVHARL
T8 sequence (Q9UM73 with tags, fused parts or gaps): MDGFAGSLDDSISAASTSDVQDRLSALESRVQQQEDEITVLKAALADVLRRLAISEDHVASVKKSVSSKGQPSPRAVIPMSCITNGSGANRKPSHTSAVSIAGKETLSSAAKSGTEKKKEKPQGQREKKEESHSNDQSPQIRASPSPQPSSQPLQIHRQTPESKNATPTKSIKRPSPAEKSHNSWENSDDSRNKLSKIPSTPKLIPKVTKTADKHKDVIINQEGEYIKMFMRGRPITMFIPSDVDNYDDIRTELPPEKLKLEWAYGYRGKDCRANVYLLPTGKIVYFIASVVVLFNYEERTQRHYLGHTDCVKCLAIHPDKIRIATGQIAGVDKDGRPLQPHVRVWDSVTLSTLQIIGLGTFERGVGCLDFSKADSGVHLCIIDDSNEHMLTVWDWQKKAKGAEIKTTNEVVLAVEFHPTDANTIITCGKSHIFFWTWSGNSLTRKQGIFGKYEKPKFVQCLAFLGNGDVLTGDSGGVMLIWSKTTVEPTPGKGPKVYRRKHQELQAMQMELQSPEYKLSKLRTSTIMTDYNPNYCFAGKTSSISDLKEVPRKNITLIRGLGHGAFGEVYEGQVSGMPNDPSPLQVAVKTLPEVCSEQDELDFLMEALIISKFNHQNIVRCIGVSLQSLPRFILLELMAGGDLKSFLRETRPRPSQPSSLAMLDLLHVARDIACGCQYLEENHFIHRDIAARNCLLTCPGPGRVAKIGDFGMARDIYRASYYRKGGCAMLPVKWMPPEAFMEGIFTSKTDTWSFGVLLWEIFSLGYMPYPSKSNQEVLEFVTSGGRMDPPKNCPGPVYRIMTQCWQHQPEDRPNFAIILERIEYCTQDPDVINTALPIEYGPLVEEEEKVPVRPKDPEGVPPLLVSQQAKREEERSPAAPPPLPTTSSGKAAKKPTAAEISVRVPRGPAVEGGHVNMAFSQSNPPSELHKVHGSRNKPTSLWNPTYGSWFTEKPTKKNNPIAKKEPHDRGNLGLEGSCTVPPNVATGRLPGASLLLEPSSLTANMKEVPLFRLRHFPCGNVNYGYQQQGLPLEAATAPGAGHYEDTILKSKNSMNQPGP
T10 sequence (P04629 510-796 limits assumed): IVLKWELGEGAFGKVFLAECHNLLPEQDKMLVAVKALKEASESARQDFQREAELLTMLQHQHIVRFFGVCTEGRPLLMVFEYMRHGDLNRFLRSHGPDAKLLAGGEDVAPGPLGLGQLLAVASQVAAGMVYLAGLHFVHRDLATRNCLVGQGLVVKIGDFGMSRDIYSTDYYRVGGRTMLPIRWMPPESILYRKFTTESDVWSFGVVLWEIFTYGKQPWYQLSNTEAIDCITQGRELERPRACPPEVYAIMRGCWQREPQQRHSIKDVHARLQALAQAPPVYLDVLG
T2 sequence (Q9UM73 1116-1392 L1196M/G1202R limits assumed): as the sequence (Q9UM73 1116-1392 limits assumed) above, with L81M, G87R counted along it
T4 sequence (P08922 1945-2222 G2032R limits assumed): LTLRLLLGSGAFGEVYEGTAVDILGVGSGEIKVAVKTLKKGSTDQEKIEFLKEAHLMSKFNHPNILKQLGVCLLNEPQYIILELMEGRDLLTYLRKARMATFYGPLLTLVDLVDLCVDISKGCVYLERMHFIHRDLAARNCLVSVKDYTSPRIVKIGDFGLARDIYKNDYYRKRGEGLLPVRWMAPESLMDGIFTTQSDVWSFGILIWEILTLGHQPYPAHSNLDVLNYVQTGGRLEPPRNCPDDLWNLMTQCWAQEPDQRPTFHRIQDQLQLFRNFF
T3 sequence (P08922 1945-2222 limits assumed): as the sequence (P08922 1945-2222 G2032R limits assumed) above, with R88G counted along it
T9 sequence (Q9UM73 with tags, fused parts or gaps L1196M/G1202R): as the sequence (Q9UM73 with tags, fused parts or gaps) above, with L635M, G641R counted along it
T6 sequence (P08922 1883-2347 limits assumed): as the sequence (P08922 1883-2347 G2032R limits assumed) above, with R150G counted along it

Ki [1] [nM] | Ki [2] [nM] | Ki [3] [nM] | Ki [4] [nM] | Ki [5] [nM] | IC50 [6] [nM] | IC50 [7] [nM] | IC50 [8] [nM] | IC50 [9] [nM] | IC50 [10] [nM] | Structure (SMILES) | TPM3-NTRK1-wt/CD74-ROS1-G2032R selectivity ratio [11] | TPM3-NTRK1-wt/CD74-ROS1-wt selectivity ratio [11] | TPM3-NTRK1-wt/EML4-ALK-L1196M-G1202R selectivity ratio [11] | TPM3-NTRK1-wt/EML4-ALK-wt selectivity ratio [11]
< 50 | < 50 | < 50 | < 50 | 50 to 500 | 0.1 to 50 | 0.1 to 50 | 0.1 to 50 | 0.1 to 50 | 50 to 500 | CCn1ncc2c1-c1cnc(N)c(c1)O[C@H](C)c1cc(F)ccc1-c1nsnc1C2 [Example 62, (19R)-3-ethyl-16-fluoro-19-methyl-20-oxa-10-thia-3,4,9,11,23-pentaazapentacyclo[19.3.1.0^2,^6.0^8,^12.0^13,^18]pentacosa-1(24),2(6),4,8,11,13,15,17,21(25),22-decaen-22-amine] | A (bin A for very high selectivity, ratio >30-fold) | A (bin A for very high selectivity, ratio >30-fold) | C (bin C for moderate selectivity, ratio ≥1) | A (bin A for very high selectivity, ratio >30-fold)
< 50 | 50 to 500 | < 50 | 50 to 500 | > 500 | 0.1 to 50 | 0.1 to 50 | 0.1 to 50 | > 500 | 50 to 500 | CCc1snc2c1-c1cnc(N)c(c1)O[C@H](C)c1cc(F)ccc1-c1nn(C)nc1C2 [Example 87, (19R)-3-ethyl-16-fluoro-10,19-dimethyl-20-oxa-4-thia-5,9,10,11,23-pentaazapentacyclo[19.3.1.0^2,^6.0^8,^12.0^13,^18]pentacosa-1(24),2,5,8,11,13,15,17,21(25),22-decaen-22-amine] | B (bin B for high selectivity, ratio >10-fold) | A (bin A for very high selectivity, ratio >30-fold) | D (bin D for low selectivity, ratio <1) | A (bin A for very high selectivity, ratio >30-fold)
< 50 | < 50 | < 50 | < 50 | 50 to 500 | 0.1 to 50 | 0.1 to 50 | 0.1 to 50 | 50 to 500 | 50 to 500 | CCn1ncc2c1-c1cnc(N)c(c1)O[C@H](C)c1cc(F)ccc1-c1nc(C)nn1C2 [Example 33, (19R)-3-ethyl-16-fluoro-10,19-dimethyl-20-oxa-hexaazapentacyclo[19.3.1.0^2,^6.0^8,^12.0^13,^18]pentacosa-1(24),2(6),4,9,11,13,15,17,21(25),22-decaen-22-amine] | A (bin A for very high selectivity, ratio >30-fold) | A (bin A for very high selectivity, ratio >30-fold) | C (bin C for moderate selectivity, ratio ≥1) | A (bin A for very high selectivity, ratio >30-fold)

More lines, now with the values behind:

Structure (SMILES) | Ki [1] [nM] | Ki [2] [nM] | Ki [3] [nM] | Ki [4] [nM] | Ki [5] [nM] | IC50 [6] [nM] | IC50 [7] [nM] | IC50 [8] [nM] | IC50 [9] [nM] | IC50 [10] [nM] | TPM3-NTRK1-wt/CD74-ROS1-G2032R selectivity ratio [11] | TPM3-NTRK1-wt/CD74-ROS1-wt selectivity ratio [11] | TPM3-NTRK1-wt/EML4-ALK-L1196M-G1202R selectivity ratio [11] | TPM3-NTRK1-wt/EML4-ALK-wt selectivity ratio [11]
CCn1ncc2c1-c1cnc(N)c(c1)O[C@H](C)c1cc(F)ccc1-n1ccnc1C2 [Example 42, (19R)-3-ethyl-16-fluoro-19-methyl-20-oxa-3,4,9,12,23-pentaazapentacyclo[19.3.1.0^2,^6.0^8,^12.0^13,^18]pentacosa-1(24),2(6),4,8,10,13,15,17,21(25),22-decaen-22-amine] | < 50 | < 50 | < 50 | < 50 | 50 to 500 | 0.1 to 50 | 0.1 to 50 | 0.1 to 50 | 50 to 500 | 50 to 500 | A (bin A for very high selectivity, ratio >30-fold) | A (bin A for very high selectivity, ratio >30-fold) | C (bin C for moderate selectivity, ratio ≥1) | B (bin B for high selectivity, ratio >10-fold)
C[C@H]1Oc2cc(cnc2N)-c2c(C#N)cnn2Cc2ncsc2-c2ccc(F)cc21 [Example 49, (19R)-22-amino-16-fluoro-19-methyl-20oxa-11-thia-5,6,9,23-tetraazapentacyclo[19.3.1.0^2,^6.0^8,^12.0^13,^18]pentacosa-1(24),2,4,8(12),9,13,15,17,21(25),22-decaene-3-carbonitrile] | < 50 | 50 to 500 | < 50 | 50 to 500 | > 500 | 0.1 to 50 | 50 to 500 | 0.1 to 50 | > 500 | > 500 | B (bin B for high selectivity, ratio >10-fold) | A (bin A for very high selectivity, ratio >30-fold) | C (bin C for moderate selectivity, ratio ≥1) | A (bin A for very high selectivity, ratio >30-fold)
C[C@H]1Oc2cc(cnc2N)-c2c(C#N)ncn2Cc2ncc(F)cc2-c2ccc(F)cc21 [Example 48, (20R)-23-amino-11,17-difluoro-20-methyl-21-oxa-4,6,9,24-tetraazapentacyclo[20.3.1.0^2,^6.0^8,^13.0^14,^19]hexacosa-1(25),2,4,8(13),9,11,14,16,1 8,22(26),23-undecaene-3-carbonitrile] | < 50 | < 50 | < 50 | < 50 | 50 to 500 | 0.1 to 50 | 0.1 to 50 | 0.1 to 50 | 0.1 to 50 | > 500 | A (bin A for very high selectivity, ratio >30-fold) | A (bin A for very high selectivity, ratio >30-fold) | B (bin B for high selectivity, ratio >10-fold) | A (bin A for very high selectivity, ratio >30-fold)
C[C@H]1Oc2cc(cnc2N)-c2c(C#N)cnn2Cc2nccnc2-c2ccc(F)cc21 [Example 47] | < 50 | 50 to 500 | < 50 | > 500 | > 500 | 0.1 to 50 | 50 to 500 | 0.1 to 50 | > 500 | > 500 | B (bin B for high selectivity, ratio >10-fold) | A (bin A for very high selectivity, ratio >30-fold) | C (bin C for moderate selectivity, ratio ≥1) | A (bin A for very high selectivity, ratio >30-fold)
